This note sets out measurements from patent publication US7947733B2, “Phosphorylated pyrone analogs and methods” (Limerick BioPharma, priority 2007, dated 2011).

Each structure is given as a SMILES string.

Test [1] concerns Transporter, Monoamine rabbit. Nature of the test: Secondary toxicity screen (MDS Pharma Services), radioligand binding. The settings on record: 10 μM. How it is done:
(§1) A secondary pharmacological screening of molecules of interest at a fixed concentration is often practiced in the pharmaceutical industry in order to evaluate the effect of the compound on secondary targets that could result in untoward toxicity in-vivo. These secondary screens are well known in the art and can be carried out by labs which specialize in these tests such as MDS-Panlabs and CEREP. A secondary toxicity screen is performed with Quercetin-3′-O-phosphate at a concentration of 10 μM against 122 targets in enzyme, radioligand binding, and cellular assays by MDS Pharma Services by methods well known in the art. Inhibition is found in only the following targets (percent inhibition at 10 μM in parentheses): ATPase, Na+/K+, Heart, Pig (65%), Nitric Oxide Synthase, Endothelial (eNOS) (72%), Protein Tyrosine Kinase, FGFR2 (94%), Protein Tyrosine Kinase, FGFR1(96%), Protein Tyrosine Kinase, Insulin Receptor (91%), Protein Tyrosine Kinase, (82%), Protein Tyrosine Kinase, ZA70 (ZAP-70) (74%), UDP Glucuronosyltransferase, UGT1A1 (52%), Adenosine A1 (50%), Adrenergic α2A (57%), Dopamine D47 (51%), Peripheral Benzodiazepine Receptor (PBR) (53%), Transporter, Monoamine rabbit (68%), Serotonin (5-Hydroxytryptamine) 5-HT1A (62%).

For the next test, the system named is Dopamine D47. The description is as above. The settings on record: 10 μM. As to the method: as §1
The test system of test [2] is Peripheral Benzodiazepine Receptor (PBR). Described as above. The note with it: 10 μM. How it is done:
as §1

The subject of a further test is kidney of rats. Nature of the test: Renal pathology in rats co-administered with quercetin-3′-O-phosphate and tacrolimus. It counts as in vivo, rat. As to the method: Tissue is removed from the kidney of rats treated with tacrolimus (Prograf®) at 0.5 mg/kg and inert vehicle, and from rats treated with tacrolimus (Prograf®) at 0.5 mg/kg and quercetin-3′-O-phosphate (Q-Phosphate) at 11 mg/kg, 28 mg/kg, and at 114 mg/kg for 25 days. […] The tissue from rats treated with Q-Phosphate and tacrolimus show no vacuoles.

On to `O=c1c(O)c(-c2ccc(O)c(OP(=O)(O)O)c2)oc2cc(O)cc(O)c12` [Quercetin-3′-O-phosphate], for which the percent inhibition was 68% in test [1], 51% with Dopamine D47 and 53% in test [2]. For the same compound, in the test on kidney of rats (co-administered with tacrolimus), the “protective effect with respect to the kidneys” value was “significant protective effect”. Further, the “vacuolation of kidney tissue” value with kidney of rats (tacrolimus 0.5 mg/kg and Q-Phosphate at 11, 28 and 114 mg/kg, 25 days) is “no vacuoles”.
